According to patent publication US9181236B2, “2-spiro-substituted iminothiazines and their mono-and dioxides as bace inhibitors, compositions and their use” (Merck Sharp & Dohme Corp., priority 2011, dated 2015):

Experiments:
[1] = molecular target: purified human autoBACE-2 (Homo sapiens (Human), UniProt Q9Y5Z0); assay: BACE-2 Assay (BACE-HTRF assay); format: biochemical; settings: Ki calculated from IC50 using the Cheng-Prusoff equation; read-out: BACE2 Ki
Description: Inhibitor IC50s at purified human autoBACE-2 are determined in a time-resolved endpoint proteolysis assay that measures hydrolysis of the QSY7-[…]-Eu-amide FRET peptide substrate (BACE-HTRF assay). […] DMSO is present at 5% final concentration in the assay. Following laser excitation of sample wells at 320 nm, the fluorescence signal at 620 nm is collected for 400 ms following a 50 μs delay on a RUBYstar HTRF plate reader (BMG Labtechnologies). Raw RFU data is normalized to maximum (1.0 nM BACE/DMSO) and minimum (no enzyme/DMSO) RFU values. […] The Ki values are calculated from the IC50 using the Cheng-Prusoff equation.

[2] = molecular target: soluble human BACE1 catalytic domain (Homo sapiens (Human), UniProt P56817); assay: BACE1 HTRF FRET Assay; format: biochemical; settings: for Ki: Ki calculated from IC50 using the Cheng-Prusoff equation; for inhibition at 1 µM: read-out: BACE1 % Inh. at 1 μM; for inhibition at 10 µM: read-out: BACE1 % Inh. at 10 μM
Sequence of soluble human BACE1 catalytic domain (P56817 75-416): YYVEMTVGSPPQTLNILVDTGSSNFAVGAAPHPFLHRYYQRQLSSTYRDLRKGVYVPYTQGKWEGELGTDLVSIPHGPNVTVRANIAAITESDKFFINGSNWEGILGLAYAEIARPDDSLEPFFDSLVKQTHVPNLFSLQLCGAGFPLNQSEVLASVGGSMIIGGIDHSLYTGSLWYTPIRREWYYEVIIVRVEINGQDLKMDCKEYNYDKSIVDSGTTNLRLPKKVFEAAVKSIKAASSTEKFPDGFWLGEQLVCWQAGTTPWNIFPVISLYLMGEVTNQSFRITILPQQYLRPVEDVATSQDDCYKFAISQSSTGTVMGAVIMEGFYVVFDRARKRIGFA
From the text: A homogeneous time-resolved FRET assay can be used to determine IC50 values for inhibitors of the soluble human BACE1 catalytic domain. This assay monitors the increase of 620 nm fluorescence that resulted from BACE1 cleavage of an APPswedish APP^swe mutant peptide FRET substrate (QSY7-[…]-Europium-amide). This substrate contains an N-terminal QSY7 moiety that serves as a quencher of the C-terminal Europium fluorophore (620 nm Em). In the absence of enzyme activity, 620 nm fluorescence is low in the assay and increased linearly over 3 hours in the presence of uninhibited BACE1 enzyme Inhibition of BACE1 cleavage of the QSY7-APP^swe-Eu substrate by inhibitors is manifested as a suppression of 620 nm fluorescence.
Reactions are initiated by addition of 10 μl of 600 nM QSY7-APP^swe-Eu substrate (200 nM final) to give a final reaction volume of 30 μl in a 384 well Nunc HTRF plate. The reactions are incubated at 30° C. for 1.5 hours. The 620 nm fluorescence is then read on a Rubystar HTRF plate reader (BMG Labtechnologies) using a 50 millisecond delay followed by a 400 millisecond acquisition time window Inhibitor IC50 values are derived from non-linear regression analysis of concentration response curves.

Sequence of purified human autoBACE-2 (Q9Y5Z0 63-473 limits assumed): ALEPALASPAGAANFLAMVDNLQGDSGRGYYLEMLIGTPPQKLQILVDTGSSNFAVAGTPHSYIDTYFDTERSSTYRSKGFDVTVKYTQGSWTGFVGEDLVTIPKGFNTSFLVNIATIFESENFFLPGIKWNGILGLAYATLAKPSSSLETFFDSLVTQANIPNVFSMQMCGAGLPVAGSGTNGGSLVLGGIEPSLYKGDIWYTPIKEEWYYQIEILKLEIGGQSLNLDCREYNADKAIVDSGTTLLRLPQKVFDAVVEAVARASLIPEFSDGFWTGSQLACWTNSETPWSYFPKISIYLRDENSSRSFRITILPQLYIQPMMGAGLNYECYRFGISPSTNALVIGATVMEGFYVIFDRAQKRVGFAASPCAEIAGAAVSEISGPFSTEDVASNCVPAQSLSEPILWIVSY

Row | SMILES | Ki [1] | Ki [2] | inhibition at 1 µM [2] | inhibition at 10 µM [2]
1 | C[C@@]1(c2cc(NC(=O)c3ccc(F)cn3)ccc2F)CS(=O)(=O)[C@@]2(CCOC2)C(=N)N1 [Example 63b] | 2.7 nM | 18.7 nM |  | 
2 | C[C@@]1(c2sc(-c3ccnc(-c4ccoc4)c3)cc2Cl)CS(=O)(=O)[C@]2(CCOC2)C(=N)N1 [Example 62j] | < 50 nM | 296 nM |  | 
3 | C[C@@]1(c2sc(C(=O)Nc3cccc(F)n3)cc2Cl)CS(=O)(=O)C2(CC2)C(=N)N1 [Example 79c] | < 50 nM | 227 nM |  | 
4 | C[C@@]1(c2sc(-c3cncc(C(F)(F)F)c3)cc2Cl)CS(=O)(=O)C2(CCOCC2)C(=N)N1 [Example 54] | < 50 nM | 157 nM |  | 
5 | C[C@@]1(c2sc(-c3cccc(C#N)c3)cc2Cl)CS(=O)(=O)C2(CCCCC2)C(=N)N1 [Example 45] | < 20 nM | 48 nM |  | 
6 | C[C@@]1(c2cc(NC(=O)c3ccc(F)cn3)ccc2F)CS(=O)(=O)C2(CCOCC2)C(=N)N1 [Example 30] | 2.1 nM | 10.9 nM |  | 
7 | COc1ccc(C(=O)Nc2ccc(F)c([C@]3(C)CS(=O)(=O)C4(CC4)C(=N)N3)c2)nc1 [Example 5] | 1.9 nM | 3.4 nM |  | 
8 | C[C@@]1(c2cc(NC(=O)c3ccc(F)cn3)ccc2F)CS(=O)(=O)C2(CC2)C(=N)N1 [Example 3] | 0.9 nM | 5.5 nM |  | 
9 | C[C@@]1(c2sc(C(=O)Nc3cccc(Cl)n3)cc2Cl)CS(=O)(=O)C2(CC2)C(=N)N1 [Example 79b] | 4 nM | 17 nM |  | 
10 | C[C@@]1(c2sc(-c3cncc(-c4ncco4)c3)cc2Cl)CS(=O)(=O)[C@]2(CCOC2)C(=N)N1 [Example 62h] | 2.8 nM | 56.7 nM |  | 
11 | C[C@@]1(c2cc(N)ccc2F)CS(=O)(=O)C2(CC2)C(=N)N1 | 1860 nM | 4900 nM |  | 
12 | COc1cnc(C(=O)Nc2ccc(F)c([C@]3(C)CS(=O)(=O)C4(CCC4)C(=N)N3)c2)cn1 [Example 7] | < 50 nM | 11.7 nM |  | 
13 | C[C@@]1(c2sc(-c3cncc(C#N)c3)cc2Cl)CS(=O)(=O)[C@@]2(CCOC2)C(=N)N1 [Example 63e] | < 50 nM | 192 nM |  | 
14 | COc1cccc2cc(-c3cc(Cl)c([C@]4(C)CS(=O)(=O)[C@@]5(CCOC5)C(=N)N4)s3)[nH]c12 [Example 63f] | 1.5 nM | 14.2 nM |  | 
15 | COc1cc(C#N)cc(-c2cc(Cl)c([C@]3(C)CS(=O)(=O)C4(CCOCC4)C(=N)N3)s2)c1 [Example 57] | < 20 nM | 161 nM |  | 
16 | C[C@@]1(c2sc(-c3cncc(-c4ncco4)c3)cc2Cl)CS(=O)(=O)[C@@]2(CCOC2)C(=N)N1 [Example 63h] | < 20 nM | 107 nM |  | 
17 | C[C@@]1(c2cc(NC(=O)c3cnsn3)ccc2F)CS(=O)(=O)C2(CCCC2)C(=N)N1 [Example 23] | 3.1 nM | 108 nM |  | 
18 | C[C@@]1(c2cc(Br)ccc2F)CS(=O)(=O)C2(CCCC2)C(=N)N1 | 935 nM |  | 42% | 
19 | C[C@@]1(c2cc(NC(=O)c3ccn(C(F)F)n3)ccc2F)CS(=O)(=O)C2(CCCC2)C(=N)N1 [Example 22] | 4.3 nM | 12.7 nM |  | 
20 | COc1ccc(C(=O)Nc2ccc(F)c([C@]3(C)CS(=O)(=O)C4(CCCC4)C(=N)N3)c2)nc1 [Example 15] | 0.6 nM | 5.2 nM |  | 
21 | C[C@@]1(c2cc(N)ccc2F)CS(=O)(=O)C2(CCCCC2)C(=N)N1 | 2800 nM |  |  | 49%
22 | C[C@@]1(c2sc(C#CCc3cc(F)c(F)c(F)c3)cc2Cl)CS(=O)(=O)C2(CCC2)C(=N)N1 [Example 78] | < 20 nM |  |  | 17%
23 | C[C@@]1(c2cc(NC(=O)c3cn4ncsc4n3)ccc2F)CS(=O)(=O)C2(CCCC2)C(=N)N1 [Example 19] | < 20 nM | 18.4 nM |  | 
24 | C[C@@]1(c2cc(NC(=O)c3ncc(F)cc3F)ccc2F)CS(=O)(=O)C2(CC2)C(=N)N1 [Example 4] | 0.5 nM | 5 nM |  | 
25 | COc1cnc(C(=O)Nc2ccc(F)c([C@]3(C)CS(=O)(=O)C4(CCOCC4)C(=N)N3)c2)cn1 [Example 32] | < 50 nM | 16.3 nM |  | 
26 | C[C@@]1(c2sc(-c3cncc(C#N)c3)cc2Cl)CS(=O)(=O)C2(CCCC2)C(=N)N1 [Example 42] | 3.4 nM | 18.3 nM |  | 
27 | C[C@@]1(c2sc(-c3cccc(C(F)(F)F)c3)cc2Cl)CS(=O)(=O)C2(CCOCC2)C(=N)N1 [Example 52] | < 50 nM | 147 nM |  | 
28 | C[C@@]1(c2cc(NC(=O)c3ccc(F)cn3)ccc2F)CS(=O)(=O)C2(CC(O)C2)C(=N)N1 (some centres unmarked) [Example 75] | 1.7 nM | 12.5 nM |  | 

Row | SMILES | Ki [1] | Ki [2] | inhibition at 1 µM [2] | inhibition at 10 µM [2]
29 | Cc1cccc(NC(=O)c2cc(Cl)c([C@]3(C)CS(=O)(=O)C4(CC4)C(=N)N3)s2)n1 [Example 79d] | < 20 nM | 30 nM |  | 
30 | C[C@@]1(c2cc(N)ccc2F)CS(=O)(=O)[C@@]2(CCOC2)C(=N)N1 | 3820 nM |  |  | 38%
31 | C[C@@]1(c2sc(-c3cncc(C#N)c3)cc2Cl)CS(=O)(=O)C2(CCOCC2)C(=N)N1 [Example 50] | < 50 nM | 130 nM |  | 
32 | C[C@@]1(c2cc(NC(=O)c3ccc(C(F)(F)F)cn3)ccc2F)CS(=O)(=O)C2(CCCCC2)C(=N)N1 [Example 29] | < 50 nM | 23.3 nM |  | 
33 | C[C@@]1(c2cc(N)ccc2F)CS(=O)(=O)C2(CCC2)C(=N)N1 | 3970 nM |  |  | 54%
34 | C[C@@]1(c2sc(-c3cccc(C#N)c3)cc2Cl)CS(=O)(=O)C2(CCOCC2)C(=N)N1 [Example 49] | < 50 nM | 113 nM |  | 
35 | C[C@@]1(c2sc(Br)cc2Cl)CS(=O)(=O)C2(CCC2)C(=N)N1 | 531 nM | 1570 nM |  | 
36 | C[C@@]1(c2cc([N+](=O)[O-])ccc2F)CS(=O)(=O)C2(CCCC2)C(=N)N1 | 734 nM |  | 44% | 
37 | C[C@@]1(c2sc(Br)cc2Cl)CS(=O)(=O)C2(CCOCC2)C(=N)N1 | 1090 nM | 2370 nM |  | 
38 | C[C@@]1(c2cc(NC(=O)c3ccc(Cl)cn3)ccc2F)CS(=O)(=O)C2(CCC2)C(=N)N1 [Example 6] | 1.9 nM | 8 nM |  | 
39 | C[C@@]1(c2cc(NC(=O)c3ccc(C#N)cn3)ccc2F)CS(=O)(=O)[C@]2(CCOC2)C(=N)N1 [Example 62e] | < 20 nM | 6.1 nM |  | 
40 | C[C@@]1(c2cc([N+](=O)[O-])ccc2F)CS(=O)(=O)C2(CCC2)C(=N)N1 | 3200 nM | 3630 nM |  | 
41 | C[C@@]1(c2cc(NC(=O)c3ccc(C(F)(F)F)cn3)ccc2F)CS(=O)(=O)C2(CCOCC2)C(=N)N1 [Example 34] | < 50 nM | 19.8 nM |  | 
42 | C[C@@]1(c2sc(-c3ccnc(-c4ccccc4)c3)cc2Cl)CS(=O)(=O)[C@]2(CCOC2)C(=N)N1 [Example 62n] | < 20 nM | 313 nM |  | 
43 | C[C@@]1(c2sc(-c3cccc(-c4nnco4)c3)cc2Cl)CS(=O)(=O)C2(CCC2)C(=N)N1 [Example 61a] | < 50 nM | 18.6 nM |  | 
44 | C[C@@]1(c2cc(NC(=O)c3ccc(F)cn3)ccc2F)CS(=O)(=O)[C@]2(CCOC2)C(=N)N1 [Example 62b] | 4.3 nM | 24 nM |  | 
45 | C[C@@]1(c2sc(Br)cc2Cl)CS(=O)(=O)C2(CCCCC2)C(=N)N1 | 715 nM | 2610 nM |  | 
46 | COc1cnc(C(=O)Nc2ccc(F)c([C@]3(C)CS(=O)(=O)[C@]4(CCOC4)C(=N)N3)c2)cn1 [Example 62] | < 20 nM | 25.4 nM |  | 
47 | COc1ccc(C(=O)Nc2ccc(F)c([C@]3(C)CS(=O)(=O)[C@@]4(CCOC4)C(=N)N3)c2)nc1 [Example 63a] | < 20 nM | 24.2 nM |  | 
48 | C[C@@]1(c2sc(-c3cccc(C#N)c3)cc2Cl)CS(=O)(=O)C2(CCC2)C(=N)N1 [Example 61] | < 20 nM | 35.6 nM |  | 
49 | COc1cccc(NC(=O)c2cc(Cl)c([C@]3(C)CS(=O)(=O)C4(CC4)C(=N)N3)s2)n1 [Example 79a] | < 20 nM | 74 nM |  | 
50 | COc1cccc2cc(-c3cc(Cl)c([C@]4(C)CS(=O)(=O)C5(CCOCC5)C(=N)N4)s3)[nH]c12 [Example 48] | 2 nM | 19.8 nM |  | 
51 | C[C@@]1(c2cc(N)ccc2F)CS(=O)(=O)[C@]2(CCOC2)C(=N)N1 | 5110 nM |  |  | 45%
52 | C[C@@]1(c2cc(NC(=O)c3ccc(F)cn3)ccc2F)CS(=O)(=O)C2(CCC2)C(=N)N1 [Example 8] | 4.2 nM | 17.1 nM |  | 
53 | C[C@@]1(c2sc(-c3ccnc(-c4ccco4)c3)cc2Cl)CS(=O)(=O)[C@]2(CCOC2)C(=N)N1 [Example 62l] | 2.2 nM | 45.3 nM |  | 
54 | C[C@@]1(c2cc(NC(=O)c3ccc(Cl)cn3)ccc2F)CS(=O)(=O)[C@]2(CCOC2)C(=N)N1 [Example 62c] | 1.8 nM | 8.1 nM |  | 
55 | C[C@@]1(c2sc(-c3cncc(C#N)c3)cc2Cl)CS(=O)(=O)C2(CC2)C(=N)N1 [Example 65] | < 50 nM | 108 nM |  | 
